Data reported in PubChem BioAssay (NCI).
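Compound exposure: 48 hours, 5 concentrations, 96-well plates. GI50 = concentration required for 50% inhibition of growth. TGI marks complete inhibition of growth.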

Tests used:
Test in all cases: NCI tumour cell line growth inhibition, 48 h
RPMI-8226 leukemia = test system: RPMI-8226 leukemia
HCT-15 colon = test system: HCT-15 colon
SR leukemia = test system: SR leukemia
MCF7 breast = test system: MCF7 breast
CCRF-CEM leukemia = test system: CCRF-CEM leukemia
SF-539 CNS = test system: SF-539 CNS
MOLT-4 leukemia = test system: MOLT-4 leukemia
EKVX NSCLC = test system: EKVX NSCLC
OVCAR-5 ovarian = test system: OVCAR-5 ovarian
SF-268 CNS = test system: SF-268 CNS
K-562 leukemia = test system: K-562 leukemia
NCI/ADR-RES ovarian = test system: NCI/ADR-RES ovarian
SNB-75 CNS = test system: SNB-75 CNS
HL-60(TB) leukemia = test system: HL-60(TB) leukemia
U251 CNS = test system: U251 CNS
OVCAR-8 ovarian = test system: OVCAR-8 ovarian
LOX IMVI melanoma = test system: LOX IMVI melanoma
HOP-92 NSCLC = test system: HOP-92 NSCLC
HOP-62 NSCLC = test system: HOP-62 NSCLC
NCI-H460 lung = test system: NCI-H460 lung
DU-145 prostate = test system: DU-145 prostate
CAKI-1 renal = test system: CAKI-1 renal
SK-OV-3 ovarian = test system: SK-OV-3 ovarian
HS 578T breast = test system: HS 578T breast
MDA-MB-435 = test system: MDA-MB-435
KM12 colon = test system: KM12 colon
HCC-2998 colon = test system: HCC-2998 colon
PC-3 prostate = test system: PC-3 prostate
NCI-H23 lung = test system: NCI-H23 lung
BT-549 breast = test system: BT-549 breast
NCI-H522 lung = test system: NCI-H522 lung
HCT-116 colon = test system: HCT-116 colon
UACC-257 melanoma = test system: UACC-257 melanoma
OVCAR-4 ovarian = test system: OVCAR-4 ovarian
SW-620 colon = test system: SW-620 colon
RXF 393 renal = test system: RXF 393 renal
TK-10 renal = test system: TK-10 renal
SF-295 CNS = test system: SF-295 CNS
OVCAR-3 ovarian = test system: OVCAR-3 ovarian
M14 melanoma = test system: M14 melanoma
NCI-H226 lung = test system: NCI-H226 lung
SK-MEL-2 melanoma = test system: SK-MEL-2 melanoma
786-0 renal = test system: 786-0 renal
A549 NSCLC = test system: A549 NSCLC
SK-MEL-5 melanoma = test system: SK-MEL-5 melanoma
A498 renal = test system: A498 renal
T-47D breast = test system: T-47D breast
HT29 colon = test system: HT29 colon
COLO 205 colon = test system: COLO 205 colon
MALME-3M melanoma = test system: MALME-3M melanoma
UACC-62 melanoma = test system: UACC-62 melanoma
SN12C renal = test system: SN12C renal
SK-MEL-28 melanoma = test system: SK-MEL-28 melanoma
ACHN renal = test system: ACHN renal
UO-31 renal = test system: UO-31 renal
MDA-MB-231 breast = test system: MDA-MB-231 breast
IGROV1 ovarian = test system: IGROV1 ovarian
SNB-19 CNS = test system: SNB-19 CNS

Cc1ccc(S(=O)(=O)N2CCN3CCN(CCN(C)CCN4CCN(CC4)CCN(S(=O)(=O)c4ccc(C)cc4)CCN(S(=O)(=O)c4ccc(C)cc4)CCN(S(=O)(=O)c4ccc(C)cc4)CCN(S(=O)(=O)c4ccc(C)cc4)CCN4CCN(CCN(C)CCN5CCN(CC5)CCN(S(=O)(=O)c5ccc(C)cc5)CCN(S(=O)(=O)c5ccc(C)cc5)CCN(S(=O)(=O)c5ccc(C)cc5)CC2)CC4)CC3)cc1 was tested, and the TGI (RPMI-8226 leukemia) was 11.9 µM, the TGI (HCT-15 colon) was 2.82 µM and the TGI (SR leukemia) was 10.6 µM. For the same compound, the TGI (MCF7 breast) was 3.3 µM, the TGI (CCRF-CEM leukemia) was 0.972 µM and the TGI (SF-539 CNS) was 4.45 µM. The TGI (MOLT-4 leukemia) was 2.91 µM, the TGI (EKVX NSCLC) was 5.82 µM and the TGI (OVCAR-5 ovarian) was 3.42 µM. The TGI (SF-268 CNS) was 6.62 µM, the TGI (K-562 leukemia) was 11 µM and the TGI (NCI/ADR-RES ovarian) was over 100 µM. For the same compound, the TGI (SNB-75 CNS) was 5.58 µM and the TGI (HL-60(TB) leukemia) was 2.7 µM.

Work on COc1cccc(Nc2nccc(Nc3ccc4[nH]ncc4c3)n2)c1 yielded a GI50 (U251 CNS) of 1.58 µM, a TGI (U251 CNS) of 3.18 µM and a GI50 (OVCAR-8 ovarian) of 1.67 µM. It also gave a TGI (OVCAR-8 ovarian) of 4.39 µM, a GI50 (LOX IMVI melanoma) of 1.44 µM and a TGI (LOX IMVI melanoma) of 3.19 µM. It also gave a GI50 (HOP-92 NSCLC) of 1.45 µM, a TGI (HOP-92 NSCLC) of 4.14 µM and a GI50 (HOP-62 NSCLC) of 1.71 µM. It also gave a TGI (HOP-62 NSCLC) of 3.78 µM, a GI50 (NCI-H460 lung) of 1.64 µM and a TGI (NCI-H460 lung) of 4.17 µM. It also gave a GI50 (DU-145 prostate) of 1.3 µM, a TGI (DU-145 prostate) of 2.85 µM and a GI50 (CAKI-1 renal) of 0.993 µM. It also gave a TGI (CAKI-1 renal) of 2.51 µM, a GI50 (SK-OV-3 ovarian) of 2.31 µM and a TGI (SK-OV-3 ovarian) of 5.4 µM. The GI50 (RPMI-8226 leukemia) was 1.36 µM, the TGI (RPMI-8226 leukemia) was 4.19 µM and the GI50 (HCT-15 colon) was 1.21 µM. It also gave a TGI (HCT-15 colon) of 2.91 µM, a GI50 (HS 578T breast) of 1.79 µM and a TGI (HS 578T breast) of 4.61 µM. It also gave a GI50 (MDA-MB-435) of 1.49 µM, a TGI (MDA-MB-435) of 3.18 µM and a GI50 (SR leukemia) of 1.34 µM. The TGI (SR leukemia) was 4.93 µM, the GI50 (MCF7 breast) was 1.26 µM and the TGI (MCF7 breast) was 3.11 µM. For the same compound, the GI50 (KM12 colon) was 1.64 µM, the TGI (KM12 colon) was 4.81 µM and the GI50 (CCRF-CEM leukemia) was 0.901 µM. The TGI (CCRF-CEM leukemia) was 4.56 µM, the GI50 (HCC-2998 colon) was 1.79 µM and the TGI (HCC-2998 colon) was 3.36 µM. It also gave a GI50 (PC-3 prostate) of 1.34 µM, a TGI (PC-3 prostate) of 3.12 µM and a GI50 (NCI-H23 lung) of 1.69 µM. The TGI (NCI-H23 lung) was 3.83 µM, the GI50 (MOLT-4 leukemia) was 0.525 µM and the TGI (MOLT-4 leukemia) was 2.83 µM. For the same compound, the GI50 (BT-549 breast) was 1.67 µM, the TGI (BT-549 breast) was 3.71 µM and the GI50 (NCI-H522 lung) was 1.48 µM. The TGI (NCI-H522 lung) was 2.86 µM, the GI50 (HCT-116 colon) was 1.59 µM and the TGI (HCT-116 colon) was 3.23 µM. The GI50 (UACC-257 melanoma) was 2.04 µM, the TGI (UACC-257 melanoma) was 3.72 µM and the GI50 (EKVX NSCLC) was 1.64 µM. It also gave a TGI (EKVX NSCLC) of 4.09 µM, a GI50 (OVCAR-4 ovarian) of 1.46 µM and a TGI (OVCAR-4 ovarian) of 4.03 µM. The GI50 (SW-620 colon) was 2.41 µM, the TGI (SW-620 colon) was 6.13 µM and the GI50 (RXF 393 renal) was 1.06 µM. For the same compound, the TGI (RXF 393 renal) was 2.33 µM, the GI50 (TK-10 renal) was 1.42 µM and the TGI (TK-10 renal) was 2.82 µM. For the same compound, the GI50 (SF-295 CNS) was 1.66 µM, the TGI (SF-295 CNS) was 3.17 µM and the GI50 (OVCAR-3 ovarian) was 1.58 µM. For the same compound, the TGI (OVCAR-3 ovarian) was 4.07 µM, the GI50 (M14 melanoma) was 1.35 µM and the TGI (M14 melanoma) was 2.81 µM. For the same compound, the GI50 (SF-268 CNS) was 1.86 µM, the TGI (SF-268 CNS) was 5.89 µM and the GI50 (K-562 leukemia) was 1.3 µM. For the same compound, the TGI (K-562 leukemia) was 3.89 µM, the GI50 (NCI-H226 lung) was 1.82 µM and the TGI (NCI-H226 lung) was 4.46 µM. The GI50 (SK-MEL-2 melanoma) was 1.62 µM, the TGI (SK-MEL-2 melanoma) was 3.27 µM and the GI50 (786-0 renal) was 1.46 µM. It also gave a TGI (786-0 renal) of 2.91 µM, a GI50 (A549 NSCLC) of 1.71 µM and a TGI (A549 NSCLC) of 3.74 µM. It also gave a GI50 (SK-MEL-5 melanoma) of 1.22 µM, a TGI (SK-MEL-5 melanoma) of 2.47 µM and a GI50 (A498 renal) of 1.65 µM. For the same compound, the TGI (A498 renal) was 5.3 µM, the GI50 (NCI/ADR-RES ovarian) was 1.54 µM and the TGI (NCI/ADR-RES ovarian) was 4.36 µM. The GI50 (SNB-75 CNS) was 1.39 µM, the TGI (SNB-75 CNS) was 3.13 µM and the GI50 (T-47D breast) was 1.05 µM. It also gave a TGI (T-47D breast) of 3.12 µM, a GI50 (HT29 colon) of 1.52 µM and a TGI (HT29 colon) of 3.45 µM. For the same compound, the GI50 (HL-60(TB) leukemia) was 1.53 µM, the TGI (HL-60(TB) leukemia) was 3.56 µM and the GI50 (COLO 205 colon) was 1.57 µM. For the same compound, the TGI (COLO 205 colon) was 3.26 µM.

Compound COc1cccc2c1C(=O)c1c(O)c3c(c(O)c1C2=O)C[C@@](O)(/C(C)=N/NC(=O)c1ccc(Cl)c(Cl)c1)C[C@@H]3OC1CC(N)C(O)C(C)O1 (stereo partly specified) has a TGI (U251 CNS) of 0.363 µM, a TGI (MALME-3M melanoma) of 0.0838 µM and a TGI (HOP-62 NSCLC) of 1.28 µM. The TGI (NCI-H460 lung) was over 100 µM, the TGI (UACC-62 melanoma) was 0.34 µM and the TGI (CAKI-1 renal) was 0.562 µM. The TGI (HCT-15 colon) was 1.16 µM, the TGI (HS 578T breast) was 3.18 µM and the TGI (MDA-MB-435) was 1.11 µM. For the same compound, the TGI (MCF7 breast) was over 100 µM, the TGI (KM12 colon) was 0.624 µM and the TGI (SN12C renal) was 0.877 µM. The TGI (NCI-H23 lung) was 0.618 µM, the TGI (SK-MEL-28 melanoma) was 0.274 µM and the TGI (HCT-116 colon) was 1.04 µM. It also gave a TGI (UACC-257 melanoma) of 1.05 µM, a TGI (EKVX NSCLC) of 7.4 µM and a TGI (ACHN renal) of 0.256 µM. For the same compound, the TGI (UO-31 renal) was over 100 µM, the TGI (SW-620 colon) was 1.35 µM and the TGI (OVCAR-5 ovarian) was 0.686 µM. It also gave a TGI (TK-10 renal) of 1.83 µM, a TGI (MDA-MB-231 breast) of 2.51 µM and a TGI (SF-295 CNS) of 0.527 µM. For the same compound, the TGI (OVCAR-3 ovarian) was 0.934 µM, the TGI (M14 melanoma) was 1.2 µM and the TGI (K-562 leukemia) was 1.06 µM. It also gave a TGI (NCI-H226 lung) of 0.231 µM, a TGI (786-0 renal) of 2.1 µM and a TGI (A549 NSCLC) of 2.68 µM. It also gave a TGI (IGROV1 ovarian) of over 100 µM, a TGI (NCI/ADR-RES ovarian) of 2.84 µM and a TGI (SNB-75 CNS) of 2.02 µM. For the same compound, the TGI (T-47D breast) was over 100 µM, the TGI (HT29 colon) was 0.379 µM and the TGI (SNB-19 CNS) was 0.445 µM. The TGI (HL-60(TB) leukemia) was 0.397 µM and the TGI (COLO 205 colon) was 1.5 µM.
